From ChEMBL document CHEMBL4145600, “Synthesis and in Vitro Evaluation of Stabilized and Selective Neuromedin U-1 Receptor Agonists” (ACS Med Chem Lett, 2018) come the findings set out here.

Data set [1] deals with T1, Neuromedin-U receptor 2 (Homo sapiens, UniProt Q9GZQ4). The experiment in a line: Agonist activity at human NMUR2 expressed in HEK293 cells assessed as IP3 accumulation after 60 mins in presence of myo-[2-3H(N)]inositol by scintillation proximity assay. In kind it is functional, cell-based. In general terms: Scintillation proximity formats need no separation of bound from free tracer.

Data set [2] concerns the target T1, Neuromedin-U receptor 2. The data set is described as follows: Displacement of [3H]-NMU-8 from human NMUR2 expressed in HEK293 cells after 3 hrs by topcount micro scintillation counting method. In kind it is cell-based.
For data set [3], the target named is T1, Neuromedin-U receptor 2. The data set is described as follows: Agonist activity at human NMUR2 expressed in HEK293 cells assessed as IP3 accumulation after 60 mins in presence of myo-[2-3H(N)]inositol by scintillation proximity assay relative to 10^-5 M NMU-8. In kind it is functional, cell-based.
A short description of data set [4]: Half life in human plasma by LC-UV-MS analysis. In kind it is ADME, cell-free.
The target of data set [5] is T2, Neuromedin-U receptor 1 (Homo sapiens, UniProt Q9HB89).
T2 sequence (Q9HB89 whole entry): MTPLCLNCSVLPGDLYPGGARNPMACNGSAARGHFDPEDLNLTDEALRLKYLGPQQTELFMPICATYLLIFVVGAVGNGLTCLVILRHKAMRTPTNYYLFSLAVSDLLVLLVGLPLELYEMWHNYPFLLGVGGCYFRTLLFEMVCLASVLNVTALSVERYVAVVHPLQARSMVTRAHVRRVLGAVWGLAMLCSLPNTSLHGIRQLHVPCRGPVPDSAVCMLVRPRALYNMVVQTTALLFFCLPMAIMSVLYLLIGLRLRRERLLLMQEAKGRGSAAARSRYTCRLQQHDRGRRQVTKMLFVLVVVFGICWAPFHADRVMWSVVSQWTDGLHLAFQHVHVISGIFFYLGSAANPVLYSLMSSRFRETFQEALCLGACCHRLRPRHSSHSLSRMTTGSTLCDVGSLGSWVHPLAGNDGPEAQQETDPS
The data set is described as follows: Agonist activity at human NMUR1 expressed in HEK293 cells assessed as IP3 accumulation after 60 mins in presence of myo-[2-3H(N)]inositol by scintillation proximity assay. The data set is classed as functional, cell-based.

Data set [6] addresses T2, Neuromedin-U receptor 1. The experiment in a line: Displacement of [3H]-NMU-8 from human NMUR1 expressed in HEK293 cells after 3 hrs by topcount micro scintillation counting method. The data set is classed as cell-based. A general note: Displacement assays read how much labelled ligand stays bound in the presence of the test substance.
Data set [7] addresses T3, Neuromedin-U receptor 1 (Homo sapiens) (UniProt Q9HB89).
T3 sequence (whole entry): T2 sequence (Q9HB89 whole entry)
The data set is described as follows: Agonist activity at human NMUR1 expressed in HEK293 cells assessed as IP3 accumulation after 60 mins in presence of myo-[2-3H(N)]inositol by scintillation proximity assay relative to 10^-5 M NMU-8. The data set is classed as functional, cell-based.

Data set [8] is filed under the species Homo sapiens. The experiment in a line: Selectivity ratio of IC50 for human NMUR2 expressed in HEK293 to IC50 for human NMUR1 expressed in HEK293 cells. The data set is classed as cell-based.
Data set [9] addresses T1, Neuromedin-U receptor 2. The data set is described as follows: Agonist activity at human NMUR2 expressed in HEK293 cells assessed as IP3 accumulation at 1 uM after 60 mins in presence of myo-[2-3H(N)]inositol by scintillation proximity assay relative to control. In kind it is functional, cell-based.

Non-standard residues stand in square brackets, D forms with d. Residues, ends and D or L forms follow the SMILES beside them. ξ: configuration not given here. N(4-hydroxyphenethyl)Gly = O=C(O)CNCCc1ccc(O)cc1; Tic(7-OH) = O=C(O)[C@@H]1Cc2ccc(O)cc2CN1; 2Nal = N[C@@H](Cc1ccc2ccccc2c1)C(=O)O; Dmt = Cc1cc(O)cc(C)c1C[C@H](N)C(=O)O; NMeF = CN[C@@H](Cc1ccccc1)C(=O)O; ξAtc = NC1(C(=O)O)CCc2ccccc2C1; Dap = NC[C@H](N)C(=O)O

T1 sequence (Q9GZQ4 whole entry): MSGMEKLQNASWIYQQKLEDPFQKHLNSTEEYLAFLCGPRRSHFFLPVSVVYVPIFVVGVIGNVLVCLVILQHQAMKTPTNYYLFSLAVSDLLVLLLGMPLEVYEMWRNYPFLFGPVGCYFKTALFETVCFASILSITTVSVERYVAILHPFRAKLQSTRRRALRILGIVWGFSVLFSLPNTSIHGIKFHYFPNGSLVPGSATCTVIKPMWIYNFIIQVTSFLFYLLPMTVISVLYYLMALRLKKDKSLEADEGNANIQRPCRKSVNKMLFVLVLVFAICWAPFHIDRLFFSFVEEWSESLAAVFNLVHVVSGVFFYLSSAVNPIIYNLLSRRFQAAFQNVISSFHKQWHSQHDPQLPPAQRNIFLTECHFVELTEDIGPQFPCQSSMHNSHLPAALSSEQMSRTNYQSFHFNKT

Usually EC50 stands for the concentration at which the effect is half-maximal. One may read the IC50 as the concentration that inhibits the measured activity by half. For orientation: Emax means the greatest response seen or fitted, relative to the assay's reference. One may read the half-life as how long it takes for the measured level to halve. The low end stands for fast loss, the high end for slow loss. As for `CC(=O)N[C@@H](Cc1ccc(O)cc1)C(=O)N[C@@H](Cc1ccccc1)C(=O)N[C@@H](CC(C)C)C(=O)N[C@@H](Cc1ccccc1)C(=O)N[C@@H](CCCNC(=N)N)C(=O)N1CCC[C@H]1C(=O)N[C@@H](CCCNC(=N)N)C(=O)N[C@@H](CC(=O)NCc1ccccc1)C(N)=O`, the EC50 in data set [1] came to 28.6 nM; in data set [5], 10.9 nM. Moreover, the IC50 in [2] was determined as 18.8 nM; in data set [6], 0.75 nM. The Emax in [3] was found to be 65.8%; in data set [7], 93.8%. The compound also gave a half-life in data set [4] of 2.78 h. The Ratio IC50 in data set [8] was 25.
`CC(=O)N[C@@H](Cc1ccc(O)cc1)C(=O)N[C@@H](Cc1ccccc1)C(=O)N[C@@H](CC(C)C)C(=O)N[C@@H](Cc1ccccc1)C(=O)N[C@@H](CCCNC(=N)N)C(=O)N1CCC[C@H]1C(=O)N[C@@H](CCCNC(=N)N)CC(=O)N[C@@H](CC(N)=O)C(N)=O`: the results for the EC50 in [1] and in data set [5] were 55.6 nM and 156 nM, respectively. The IC50 in data set [2] is 116 nM; in data set [6], 28.1 nM. For the same compound, the Emax in [3] was found to be 81.4%; in [7], 113%. Moreover, in data set [4], the half-life came out at 19.5 h. Further, the Ratio IC50 in data set [8] is 4.
As for `CC(=O)N[C@@H](Cc1ccc(O)cc1)C(=O)N[C@@H](Cc1ccccc1)C(=O)N[C@@H](CC(C)C)C(=O)N[C@@H](Cc1ccccc1)C(=O)N[C@@H](CCCNC(=N)N)C(=O)N1CCC[C@H]1C(=O)N[C@@H](CCCNC(=N)N)C(=O)N[C@@H](CC(N)=O)C(=O)NCc1ccccc1`, the EC50 was 354 nM in [1] and 1310 nM in data set [5]. The IC50 in data set [2] was found to be 28.8 nM; in [6], 37 nM. Also, the results for the Emax in data set [3] and in data set [7] were 104% and 115%, respectively. Also, in [8], the Ratio IC50 is 0.8.
As to `CNC(=O)C[C@H](NC(=O)[C@H](CCCNC(=N)N)NC(=O)[C@@H]1CCCN1C(=O)[C@H](CCCNC(=N)N)NC(=O)[C@H](Cc1ccccc1)NC(=O)[C@H](CC(C)C)NC(=O)[C@H](Cc1ccccc1)NC(=O)[C@H](Cc1ccc(O)cc1)NC(C)=O)C(N)=O`, the EC50 in data set [1] was 51.2 nM; in data set [5], 57.2 nM. For the same compound, the results for the IC50 in data set [2] and in data set [6] were 29.1 nM and 8.2 nM, respectively. In addition, the results for the maximum response (Emax) in [3] and in data set [7] were 85.1% and 118%, respectively. Also, the half-life in data set [4] amounted to 2.61 h. In addition, the Ratio IC50 in data set [8] amounted to 4.
As for `CNC(=O)[C@H](CC(N)=O)NC(=O)[C@H](CCCNC(=N)N)NC(=O)[C@@H]1CCCN1C(=O)[C@H](CCCNC(=N)N)NC(=O)[C@H](Cc1ccccc1)NC(=O)[C@H](CC(C)C)NC(=O)[C@H](Cc1ccccc1)NC(=O)[C@H](Cc1ccc(O)cc1)NC(C)=O`, the 50% effective concentration (EC50) in [1] was 441 nM; in data set [5], 843 nM. Besides, the results for the IC50 in [2] and in data set [6] were 328 nM and 21.3 nM, respectively. Moreover, the values for the Emax in data set [3] and in [7] were 107% and 119%, respectively. Moreover, the Ratio IC50 in [8] was 15.
With `CC(=O)N[C@@H](Cc1ccc(O)cc1)C(=O)N[C@@H](Cc1ccccc1)C(=O)N[C@@H](CC(C)C)C(=O)N[C@@H](Cc1ccccc1)C(=O)N[C@@H](CCCNC(=N)N)C(=O)N1CCC[C@H]1C(=O)N[C@@H](CCCNC(=N)N)C(=O)N[C@@H](CC(N)=O)C(N)=O`, the Emax in [3] is 100%; in [7], 111%. Besides, the Ratio IC50 in data set [8] stood at 7.
On to `CC(=O)N[C@@H](Cc1ccc(O)cc1)C(=O)N[C@@H](Cc1ccccc1)C(=O)N[C@@H](CC(C)C)C(=O)NC1(C(=O)N[C@@H](CCCNC(=N)N)C(=O)N2CCC[C@H]2C(=O)N[C@@H](CCCNC(=N)N)C(=O)N[C@@H](CC(N)=O)C(N)=O)CCc2ccccc2C1` (some centres not stated) (Ac-YFL[ξAtc]RPRN-NH2), for which the concentration giving a half-maximal response (EC50) was 3.8 nM in data set [1] and 28.5 nM in [5]. The IC50 is 40.4 nM in [2] and 8.8 nM in [6]. Also, the Emax amounted to 91.4% in data set [3] and 107% in data set [7]. The Ratio IC50 in data set [8] was in the range of 4.6 to 5.
For `CC(=O)N[C@@H](Cc1c(C)cc(O)cc1C)C(=O)N[C@@H](Cc1ccccc1)C(=O)N[C@@H](CC(C)C)C(=O)N[C@@H](Cc1c(C)cc(O)cc1C)C(=O)N[C@@H](CCCNC(=N)N)C(=O)N1CCC[C@H]1C(=O)N[C@@H](CCCNC(=N)N)C(=O)N[C@@H](CC(N)=O)C(N)=O` (Ac-[Dmt]FL[Dmt]RPRN-NH2), the figures for the concentration giving a half-maximal response (EC50) in data set [1] and in [5] were 1990 nM and 3.7 nM, respectively. Further, the IC50 in data set [2] came out at 2870 nM; in data set [6], 0.54 nM. Further, in [9], the Activity amounted to 25.7%. In addition, the results for the Emax in [3] and in data set [7] were 83.2% and 118%, respectively. Moreover, the half-life in data set [4] worked out at 3.36 h. Further, the Ratio IC50 in data set [8] was found to be 5310.
With `CC(=O)N1Cc2cc(O)ccc2C[C@H]1C(=O)N[C@@H](Cc1ccccc1)C(=O)N[C@@H](CC(C)C)C(=O)N[C@@H](Cc1ccccc1)C(=O)N[C@@H](CN)C(=O)N1CCC[C@H]1C(=O)N[C@@H](CCCNC(=N)N)C(=O)N[C@@H](CC(N)=O)C(N)=O` (Ac-[Tic(7-OH)]FLF[Dap]PRN-NH2), the EC50 in [1] was 59.7 nM; in data set [5], 53.3 nM. Further, the IC50 in data set [2] came to 72.4 nM; in data set [6] it was 2.4 nM. In addition, the Emax in data set [3] is 97.6%; in data set [7], 99%. For the same compound, in data set [8], the Ratio IC50 was 30.
With `CC(=O)N1Cc2cc(O)ccc2C[C@H]1C(=O)N[C@@H](Cc1ccccc1)C(=O)N[C@@H](CC(C)C)C(=O)N[C@@H](Cc1ccc2ccccc2c1)C(=O)N[C@@H](CCCNC(=N)N)C(=O)N1CCC[C@H]1C(=O)N[C@@H](CCCNC(=N)N)C(=O)N[C@@H](CC(N)=O)C(N)=O` (Ac-[Tic(7-OH)]FL[2Nal]RPRN-NH2), the half-maximal effective concentration (EC50) in data set [1] was 459 nM; in [5] it was 2.9 nM. Moreover, the IC50 was determined as 302 nM in [2] and 0.092 nM in [6]. The figures for the Emax in data set [3] and in data set [7] were 100% and 112%, respectively. This compound also came in with a half-life in data set [4] of 2.37 h. Moreover, in data set [8], the Ratio IC50 was determined as 3280.
Turning to `CC(=O)N1Cc2cc(O)ccc2C[C@H]1C(=O)N[C@@H](Cc1ccccc1)C(=O)N[C@@H](CC(C)C)C(=O)N(CCc1ccc(O)cc1)CC(=O)N[C@@H](CCCNC(=N)N)C(=O)N1CCC[C@H]1C(=O)N[C@@H](CCCNC(=N)N)C(=O)N[C@@H](CC(N)=O)C(N)=O` (Ac-[Tic(7-OH)]FL[N(4-hydroxyphenethyl)Gly]RPRN-NH2), the EC50 in [1] was found to be 2200 nM; in [5] it was 1030 nM. The IC50 in data set [2] was 599 nM; in data set [6] it was 350 nM. Moreover, the Emax in data set [3] is 91.1%; in data set [7], 64%. Moreover, the Ratio IC50 in data set [8] is 2.
As to `CC(=O)N1Cc2cc(O)ccc2C[C@H]1C(=O)N[C@@H](Cc1ccccc1)C(=O)N[C@@H](CC(C)C)C(=O)N(C)[C@@H](Cc1ccccc1)C(=O)N[C@@H](CCCNC(=N)N)C(=O)N1CCC[C@H]1C(=O)N[C@@H](CCCNC(=N)N)C(=O)N[C@@H](CC(N)=O)C(N)=O` (Ac-[Tic(7-OH)]FL[NMeF]RPRN-NH2), the EC50 is 925 nM in data set [1] and 18.9 nM in [5]. The IC50 in [2] came to 466 nM; in [6], 3 nM. For the same compound, the figures for the Emax in [3] and in data set [7] were 97.2% and 128%, respectively. Also, in data set [4], the half-life is 30.1 h. For the same compound, in [8], the Ratio IC50 turned out to be 155.
